The values below come from PMC4737078, “Cytochrome P450 CYP71BE5 in grapevine (Vitis vinifera) catalyzes the formation of the spicy aroma compound (−)-rotundone” (Journal of Experimental Botany, 2015).

For one series, the target named is T1, VvSTO6 (Vitis vinifera, UniProt A0A0S3QPS9).
T1 construct: gene CYP71BE10
T1 sequence (A0A0S3QPS9 1-505): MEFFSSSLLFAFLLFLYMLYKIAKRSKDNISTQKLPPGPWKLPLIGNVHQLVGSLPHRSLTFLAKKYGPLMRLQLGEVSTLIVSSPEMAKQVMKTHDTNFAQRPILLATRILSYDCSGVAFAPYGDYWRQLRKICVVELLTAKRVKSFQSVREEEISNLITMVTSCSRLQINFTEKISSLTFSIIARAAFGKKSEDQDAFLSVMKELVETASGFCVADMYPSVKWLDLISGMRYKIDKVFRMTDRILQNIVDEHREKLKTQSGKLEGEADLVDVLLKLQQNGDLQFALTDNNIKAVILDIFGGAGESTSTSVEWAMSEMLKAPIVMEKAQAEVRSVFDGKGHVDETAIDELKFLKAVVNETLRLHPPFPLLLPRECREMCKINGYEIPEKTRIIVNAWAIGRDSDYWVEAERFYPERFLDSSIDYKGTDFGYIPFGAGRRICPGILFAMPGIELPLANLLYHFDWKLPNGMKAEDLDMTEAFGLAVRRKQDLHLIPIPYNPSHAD
In words: GC-MS of reaction products, recombinant yeast microsomes. As to conditions: 100 μM substrate, 1 mM NADPH, 50 mM Tris-HCl pH 7.5, 30 °C, 2 h; unidentified products presumed mono-hydroxylated sesquiterpenes. The format is biochemical.

In the next series the target is T2, VvSTO4 (Vitis vinifera, UniProt A0A0S3QPU4).
T2 construct: gene CYP71BE1
T2 sequence (A0A0S3QPU4 1-504): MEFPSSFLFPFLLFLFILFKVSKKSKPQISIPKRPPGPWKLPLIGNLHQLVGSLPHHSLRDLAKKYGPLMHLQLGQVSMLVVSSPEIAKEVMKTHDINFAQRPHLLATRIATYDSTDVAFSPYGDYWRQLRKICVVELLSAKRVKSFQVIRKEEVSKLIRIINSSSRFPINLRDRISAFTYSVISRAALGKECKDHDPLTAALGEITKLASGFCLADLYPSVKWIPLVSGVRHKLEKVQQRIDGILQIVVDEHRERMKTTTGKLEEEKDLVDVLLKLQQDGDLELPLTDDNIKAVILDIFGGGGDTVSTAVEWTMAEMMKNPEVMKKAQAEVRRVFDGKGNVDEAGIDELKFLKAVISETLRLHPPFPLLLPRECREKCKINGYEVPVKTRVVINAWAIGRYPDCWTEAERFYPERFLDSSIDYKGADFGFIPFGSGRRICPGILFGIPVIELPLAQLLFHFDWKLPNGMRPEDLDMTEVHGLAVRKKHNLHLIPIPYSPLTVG
Described as above. It counts as biochemical. As to conditions: 100 μM substrate, 1 mM NADPH, 50 mM Tris-HCl pH 7.5, 30 °C, 2 h; unidentified products presumed mono-hydroxylated sesquiterpenes.

Substrate in series [1]: C=C(C)[C@@H]1CCC2=CCC[C@@H](C)[C@]2(C)C1
The experiment in a line: cells, lysate or membranes. Particulars: 1 mM NADPH, 50 mM Tris-HCl pH 7.5, 30 °C, 30 min, 2–100 μM substrate.

Substrate in series [2]: C=C(C)[C@@H]1CC[C@H](C)C2=C(C1)[C@@H](C)CC2
In words: GC-MS (SBSE) of (−)-rotundone formation, Hanes-Woolf plot, recombinant yeast microsomes. The format is biochemical, Vitis vinifera. Particulars: 1 mM NADPH, 50 mM Tris-HCl pH 7.5, 30 °C, 30 min, 2.6–130 μM substrate.

With `C=C(C)[C@@H]1CC[C@H](C)C2=C(C1)[C@@H](C)CC2` [α-guaiene], the “GC-MS of reaction products, recombinant yeast microsomes” value is “VvSTO4 and VvSTO6 produced several reaction products with α-guaiene as a substrate” at VvSTO6; “VvSTO4 and VvSTO6 produced several reaction products with α-guaiene as a substrate” on VvSTO4.

B1: VvSTO2 (Vitis vinifera) (protein)
chain: MELQFSFFPILCTFLLFIYLLKRLGKPSRTNHPAPKLPPGPWKLPIIGNMHQLVGSLPHRSLRSLAKKHGPLMHLQLGEVSAIVVSSREMAKEVMKTHDIIFSQRPCILAASIVSYDCTDIAFAPYGGYWRQIRKISVLELLSAKRVQSFRSVREEEVLNLVRSVSLQEGVLINLTKSIFSLTFSIISRTAFGKKCKDQEAFSVTLDKFADSAGGFTIADVFPSIKLLHVVSGMRRKLEKVHKKLDRILGNIINEHKARSAAKETCEAEVDDDLVDVLLKVQKQGDLEFPLTMDNIKAVLLDLFVAGTETSSTAVEWAMAEMLKNPRVMAKAQAEVRDIFSRKGNADETVVRELKFLKLVIKETLRLHPPVPLLIPRESRERCAINGYEIPVKTRVIINAWAIARDPKYWTDAESFNPERFLDSSIDYQGTNFEYIPFGAGRRMCPGILFGMANVELALAQLLYHFDWKLPNGARHEELDMTEGFRTSTKRKQDLYLIPITYRPLPVE
As to B1, the figures for the Km in series [1] and in series [2] were 35 µM and 30 µM, respectively.
